# Measurements taken from patent EP3789378A1, “PIPERIDINES OR PIPERIDONES SUBSTITUTED WITH UREA AND HETEROARYL” (Grünenthal GmbH, priority 2019, dated 2021).
# Biological target: T1, h FPR2 (Homo sapiens, UniProt P25090)
# T1 construct: expressed in transfected cells
# T1 sequence (P25090 1-351): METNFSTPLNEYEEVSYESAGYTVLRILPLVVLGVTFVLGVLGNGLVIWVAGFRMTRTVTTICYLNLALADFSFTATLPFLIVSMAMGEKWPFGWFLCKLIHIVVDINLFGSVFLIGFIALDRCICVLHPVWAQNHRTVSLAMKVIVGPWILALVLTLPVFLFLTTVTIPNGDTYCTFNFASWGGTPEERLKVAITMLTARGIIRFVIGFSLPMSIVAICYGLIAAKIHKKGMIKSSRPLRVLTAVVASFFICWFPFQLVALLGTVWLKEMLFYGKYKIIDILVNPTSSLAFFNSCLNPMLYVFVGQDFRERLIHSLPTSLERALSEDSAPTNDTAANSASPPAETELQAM
# Assay: Agonistic activity in hFPR2-Aq-CHO cells (FLIPR Calcium 5 fluorescence assay)
# Assay type: cell-based
# Conditions: 11 point half log dilution, final assay concentration from 10µM
# In short: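 hFPR2-Aq-CHO cells were loaded with Calcium 5 dye for 30 min at 37 °C and equilibrated 10 min at room temperature. Compound (11 points, 10 µM to 100 pM final) was added in HBSS/HEPES/probenecid buffer pH 7.4. Fluorescence rise over basal across 5 min, relative to no-compound wells, gave EC50.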
row,SMILES,EC50 [nM]
1,"COc1ccc([C@@H]2CN(CC3(O)COC3)CC[C@H]2NC(=O)Nc2ccc(Cl)cc2)nc1 (relative stereo) [Ex-194, trans-1-(4-chloro-phenyl)-3-[1'-(3-hydroxy-oxetan-3-ylmethyl)-5-methoxy-1',2',3',4',5',6'-hexahydro-[2,3']bipyridinyl-4'-yl]-urea]",1.3
2,"COc1cnc([C@@H]2CN(CCS(C)(=O)=O)CC[C@H]2NC(=O)Nc2ccc(Cl)cc2)c(F)c1 (relative stereo) [Ex-196, trans-1-(4-chloro-phenyl)-3-[3-fluoro-1'-(2-methanesulfonyl-ethyl)-5-methoxy-1',2',3',4',5',6'-hexahydro-[2,3']bipyridinyl-4'-yl]-urea]",0.7
3,"COc1cnc([C@@H]2CN(CCCO)CC[C@H]2NC(=O)Nc2ccc(Cl)cc2)c(F)c1 (relative stereo) [Ex-197, trans-1-(4-chloro-phenyl)-3-[3-fluoro-1'-(3-hydroxy-propyl)-5-methoxy-1',2',3',4',5',6'-hexahydro-[2,3']bipyridinyl-4'-yl]-urea]",0.9
4,"COCCN1CC[C@@H](NC(=O)Nc2ccc(Cl)cc2)[C@H](c2ncc(OC)cc2F)C1 (relative stereo) [Ex-198, trans-1-(4-chloro-phenyl)-3-[3-fluoro-5-methoxy-1'-(2-methoxy-ethyl)-1',2',3',4',5',6'-hexahydro-[2,3']bipyridinyl-4'-yl]-urea]",0.4
5,"COc1cnc([C@@H]2CN(CCO)CC[C@H]2NC(=O)Nc2ccc(Cl)cc2)c(F)c1 (relative stereo) [Ex-199, trans-1-(4-chloro-phenyl)-3-[3-fluoro-1'-(2-hydroxy-ethyl)-5-methoxy-1',2',3',4',5',6'-hexahydro-[2,3']bipyridinyl-4'-yl]-urea]",0.5
6,"COc1cnc([C@@H]2CN(CC3COC3)CC[C@H]2NC(=O)Nc2ccc(Cl)cc2)c(F)c1 (relative stereo) [Ex-200, trans-1-(4-chloro-phenyl)-3-(3-fluoro-5-methoxy-1'-oxetan-3-ylmethyl-1',2',3',4',5',6'-hexahydro-[2,3']bipyridinyl-4'-yl)-urea]",0.4
7,"COc1ccc([C@@H]2CN(CC3(OC)CC3)CC[C@H]2NC(=O)Nc2ccc(Cl)cc2)nc1 (relative stereo) [Ex-201, trans-1-(4-chloro-phenyl)-3-[5-methoxy-1'-(1-methoxy-cyclopropylmethyl)-1',2',3',4',5',6'-hexahydro-[2,3']bipyridinyl-4'-yl]-urea]",0.6
8,"COc1ccc([C@@H]2CN(CC3COC3)CC[C@H]2NC(=O)Nc2cc(C)ns2)nc1 (relative stereo) [Ex-204, trans-1-(5-methoxy-1'-oxetan-3-ylmethyl-1',2',3',4',5',6'-hexahydro-[2,3']bipyridinyl-4'-yl)-3-(3-methyl-isothiazol-5-yl)-urea]",4
9,"COc1ccc([C@@H]2CN(CC3CC(C)(O)C3)CC[C@H]2NC(=O)Nc2ccc(Cl)cc2)nc1 (relative stereo) [Ex-207, trans-1-(4-chloro-phenyl)-3-[1'-(3-hydroxy-3-methyl-cyclobutylmethyl)-5-methoxy-1',2',3',4',5',6'-hexahydro-[2,3']bipyridinyl-4'-yl]-urea]",9
10,"COc1cnc([C@@H]2CN(CC(C)(C)O)CC[C@H]2NC(=O)Nc2ccc(Cl)cc2)c(F)c1 (relative stereo) [Ex-208, trans-1-(4-chloro-phenyl)-3-[3-fluoro-1'-(2-hydroxy-2-methyl-propyl)-5-methoxy-1',2',3',4',5',6'-hexahydro-[2,3']bipyridinyl-4'-yl]-urea]",0.7
11,"COc1cnc([C@@H]2CN(CC3CC3)CC[C@H]2NC(=O)Nc2ccc(Cl)cc2)c(F)c1 (relative stereo) [Ex-209, trans-1-(4-chloro-phenyl)-3-(1'-cyclopropylmethyl-3-fluoro-5-methoxy-1',2',3',4',5',6'-hexahydro-[2,3']bipyridinyl-4'-yl)-urea]",0.3
12,"COc1ccc([C@@H]2CN(c3ccnc(C)n3)CC[C@H]2NC(=O)Nc2ccc(Cl)cc2)nc1 (relative stereo) [Ex-210, trans-1-(4-chloro-phenyl)-3-[5-methoxy-1'-(2-methyl-pyrimidin-4-yl)-1',2',3',4',5',6'-hexahydro-[2,3']bipyridinyl-4'-yl]-urea]",5
13,"COc1ccc([C@@H]2CN(c3ccnc(C)n3)CC[C@H]2NC(=O)Nc2cc(C)ns2)nc1 (relative stereo) [Ex-211, trans-1-[5-methoxy-1'-(2-methyl-pyrimidin-4-yl)-1',2',3',4',5',6'-hexahydro-[2,3']bipyridinyl-4'-yl]-3-(3-methyl-isothiazol-5-yl)-urea]",7
14,"COc1cnc([C@@H]2CN(CCCN(C)C)CC[C@H]2NC(=O)Nc2ccc(Cl)cc2)c(F)c1 (relative stereo) [Ex-212, trans-1-(4-chloro-phenyl)-3-[1'-(3-dimethylamino-propyl)-3-fluoro-5-methoxy-1',2',3',4',5',6'-hexahydro-[2,3']bipyridinyl-4'-yl]-urea]",0.3
15,"COc1cnc([C@@H]2CN(CCN(C)C)CC[C@H]2NC(=O)Nc2ccc(Cl)cc2)c(F)c1 (relative stereo) [Ex-213, trans-1-(4-chloro-phenyl)-3-[1'-(2-dimethylamino-ethyl)-3-fluoro-5-methoxy-1',2',3',4',5',6'-hexahydro-[2,3']bipyridinyl-4'-yl]-urea]",1.05
16,"COc1ccc([C@@H]2CN(CC3(O)COC3)CC[C@H]2NC(=O)Nc2cc(C)ns2)nc1 (relative stereo) [Ex-217, trans-1-[1'-(3-hydroxy-oxetan-3-ylmethyl)-5-methoxy-1',2',3',4',5',6'-hexahydro-[2,3']bipyridinyl-4'-yl]-3-(3-methyl-isothiazol-5-yl)-urea]",6
17,"O=C(Nc1ccc(Cl)cc1)NC1CC(=O)N(c2ccc(F)cc2)CC1c1ccc(Cl)cn1 (single isomer, unassigned) [Ex-15, 1-(4-chlorophenyl)-3-[5-(5-chloropyridin-2-yl)-1-(4-fluorophenyl)-2-oxopiperidin-4-yl]urea]",7
18,"Cc1cc(NC(=O)N[C@@H]2CCN(c3ccncn3)C[C@H]2c2ccc(Cl)cn2)sn1 (single isomer, unassigned) [Ex-16, trans-1-(5-chloro-1'-pyrimidin-4-yl-1',2',3',4',5',6'-hexahydro-[2,3']bipyridinyl-4'-yl)-3-(3-methyl-isothiazol-5-yl)-urea]",0.9
19,"Cc1cc(CN2CC[C@@H](NC(=O)Nc3ccc(Cl)cc3)[C@H](c3ccc(Cl)cn3)C2)no1 (single isomer, unassigned) [Ex-22, trans-1-(4-chlorophenyl)-3-[3-(5-chloropyridin-2-yl)-1-[(5-methyl-1,2-oxazol-3-yl)methyl]piperidin-4-yl]urea]",0.2

# The next lines start with the values.
row,EC50 [nM],SMILES
1,4,"COc1cnc([C@@H]2CN(C3COC3)CC[C@H]2NC(=O)Nc2ccc(Cl)cc2)c(F)c1 (relative stereo) [Ex-218, trans-1-(4-chloro-phenyl)-3-(3-fluoro-5-methoxy-1'-oxetan-3-yl-1',2',3',4',5',6'-hexahydro-[2,3']bipyridinyl-4'-yl)-urea]"
2,38,"COc1ccc([C@@H]2CN(C(C)(C)CO)CC[C@H]2NC(=O)Nc2ccc(Cl)cc2)nc1 (relative stereo) [Ex-219, trans-1-(4-chloro-phenyl)-3-[1'-(2-hydroxy-1,1-dimethyl-ethyl)-5-methoxy-1',2',3',4',5',6'-hexahydro-[2,3']bipyridinyl-4'-yl]-urea]"
3,0.4,"COc1ccc([C@@H]2CN(CC3(O)CCC3)CC[C@H]2NC(=O)Nc2ccc(Cl)cc2)nc1 (relative stereo) [Ex-220, trans-1-(4-chloro-phenyl)-3-[1'-(1-hydroxy-cyclobutylmethyl)-5-methoxy-1',2',3',4',5',6'-hexahydro-[2,3']bipyridinyl-4'-yl]-urea]"
4,0.9,"COc1cnc([C@@H]2CN(CC3CCC(O)CC3)CC[C@H]2NC(=O)Nc2ccc(Cl)cc2)c(F)c1 (relative stereo) [Ex-221, trans-1-(4-chloro-phenyl)-3-[3-fluoro-1'-(4-hydroxy-cyclohexylmethyl)-5-methoxy-1',2',3',4',5',6'-hexahydro-[2,3']bipyridinyl-4'-yl]-urea]"
5,0.3,"COc1cnc([C@@H]2CN(CC(N)=O)CC[C@H]2NC(=O)Nc2ccc(Cl)cc2)c(F)c1 (relative stereo) [Ex-222, trans-2-{4'-[3-(4-chlorophenyl)-ureido]-3-fluoro-5-methoxy-3',4',5',6'-tetrahydro-2'H-[2,3']bipyridinyl-1'-yl}-acetamide]"
6,0.8,"COc1cnc([C@@H]2CN(CC3CCC(OC)CC3)CC[C@H]2NC(=O)Nc2ccc(Cl)cc2)c(F)c1 (relative stereo) [Ex-223, trans-1-(4-Chloro-phenyl)-3-[3-fluoro-5-methoxy-1'-(4-methoxy-cyclohexylmethyl)-1',2',3',4',5',6'-hexahydro-[2,3']bipyridinyl-4'-yl]-urea]"
7,5,"COc1ccc([C@@H]2CN(c3cncc(C)n3)CC[C@H]2NC(=O)Nc2ccc(Cl)cc2)nc1 (relative stereo) [Ex-224, trans-1-(4-chloro-phenyl)-3-[5-methoxy-1'-(6-methyl-pyrazin-2-yl)-1',2',3',4',5',6'-hexahydro-[2,3']bipyridinyl-4'-yl]-urea]"
8,0.9,"COc1ccc([C@@H]2CN(c3cnccn3)CC[C@H]2NC(=O)Nc2ccc(Cl)cc2)nc1 (relative stereo) [Ex-226, trans-1-(4-chloro-phenyl)-3-(5-methoxy-1'-pyrazin-2-yl-1',2',3',4',5',6'-hexahydro-[2,3']bipyridinyl-4'-yl)-urea]"
